Experimental data reported in ChEMBL document CHEMBL1127074, “Novel hypotensive agents from Verbesina caracasana. 2. Synthesis and pharmacology of caracasanamide” (1993).
Values joined by “and” are separate entries in the source; they are usually repeats but may differ in a detail not shown here. Equal values may be shown once.

What was measured:
Rattus norvegicus [1] = test: Tested for the change in systolic blood pressure administered at 6400 ug/kg intravenously in anesthetized rats; assay type: functional, Artery
Rattus norvegicus [2] = test: Tested for the change in systolic blood pressure administered at 800 ug/kg intravenously in anesthetized rats; assay type: functional, Artery
Rattus norvegicus [3] = test: Tested for the change in systolic blood pressure administered at 800 ug/kg intravenously in anesthetized rats in presence of propranolol (3 mg/kg); assay type: functional, Artery
Rattus norvegicus [4] = test: Maximum rate of rise of the left ventricular isovolumetric pressure administered at 4.12 uM/kg iv in anesthetized rats; assay type: functional, Heart left ventricle
Rattus norvegicus [5] = test: Tested for the change in diastolic blood pressure administered at 1600 ug/kg intravenously in anesthetized rats; assay type: functional, Artery
Rattus norvegicus [6] = test: Tested for the change in diastolic blood pressure administered at 1600 ug/kg iv in anesthetized rats in presence of hexamethonium (5 mg/kg) (p<0.05); assay type: functional, Artery
Rattus norvegicus [7] = test: Tested for the change in diastolic blood pressure administered at 1600 ug/kg iv in anesthetized rats in presence of propranolol (3 mg/kg); assay type: functional, Artery
Rattus norvegicus [8] = test: Tested for the change in systolic blood pressure administered at 100 ug/kg iv in anesthetized rats in presence of spinalization under vagotomy; assay type: functional, Artery
Rattus norvegicus [9] = test: Tested for the change in systolic blood pressure administered at 1600 ug/kg intravenously in anesthetized rats; assay type: functional, Artery
Rattus norvegicus [10] = test: Tested for the change in systolic blood pressure administered at 1600 ug/kg intravenously in anesthetized rats in presence of hexamethonium (5 mg/kg) (p<0.05); assay type: functional, Artery
Rattus norvegicus [11] = test: Tested for the change in systolic blood pressure administered at 1600 ug/kg intravenously in anesthetized rats in presence of propranolol (3 mg/kg); assay type: functional, Artery
Rattus norvegicus [12] = test: Tested for the change in systolic blood pressure administered at 200 ug/kg intravenously in anesthetized rats in presence of spinalization under vagotomy; assay type: functional, Artery
Rattus norvegicus [13] = test: Tested for the change in systolic blood pressure administered at 200 ug/kg iv in anesthetized rats in presence of spinalization under vagotomy; assay type: functional, Artery
Rattus norvegicus [14] = test: Tested for the change in systolic blood pressure administered at 3200 ug/kg intravenously in anesthetized rats; assay type: functional, Artery
Rattus norvegicus [15] = test: Tested for the change in systolic blood pressure administered at 3200 ug/kg intravenously in anesthetized rats in presence of propranolol (3 mg/kg); assay type: functional, Artery
Rattus norvegicus [16] = test: Tested for the change in systolic blood pressure administered at 3200 ug/kg iv in anesthetized rats in presence of spinalization under vagotomy (p<0.05); assay type: functional, Artery
Rattus norvegicus [17] = test: Tested for the change in diastolic blood pressure administered at 3200 ug/kg iv in anesthetized rats in presence of propranolol (3 mg/kg); assay type: functional, Artery
Rattus norvegicus [18] = test: Tested for the change in diastolic blood pressure administered at 6400 ug/kg iv in anesthetized rats in presence of hexamethonium (5 mg/kg) (p<0.05); assay type: functional, Artery
Rattus norvegicus [19] = test: Tested for the change in diastolic blood pressure administered at 6400 ug/kg iv in anesthetized rats in presence of propranolol (3 mg/kg); assay type: functional, Artery
Rattus norvegicus [20] = test: Tested for the change in diastolic blood pressure administered at 800 ug/kg intravenously in anesthetized rats; assay type: functional, Artery
Rattus norvegicus [21] = test: Tested for the change in diastolic blood pressure administered at 800 ug/kg iv in anesthetized rats in presence of hexamethonium (5 mg/kg) (p<0.05); assay type: functional, Artery
Rattus norvegicus [22] = test: Change in heart rate administered at 1600 ug/kg iv in anesthetized rats in presence of hexamethonium (5 mg/kg) (p<0.05); assay type: functional
Rattus norvegicus [23] = test: Change in respiratory frequency administered at 1600 ug/kg iv in anesthetized rats; assay type: functional
Rattus norvegicus [24] = test: Change in respiratory frequency administered at 200 ug/kg iv in anesthetized rats; assay type: functional
Rattus norvegicus [25] = test: Change in respiratory frequency administered at 3200 ug/kg iv in anesthetized rats; assay type: functional
Rattus norvegicus [26] = test: Change in respiratory frequency administered at 400 ug/kg iv in anesthetized rats; assay type: functional
Rattus norvegicus [27] = test: Change in respiratory frequency administered at 50 ug/kg iv in anesthetized rats; assay type: functional
Rattus norvegicus [28] = test: Change in respiratory frequency administered at 800 ug/kg iv in anesthetized rats; assay type: functional
Rattus norvegicus [29] = test: Change in heart rate administered at 3200 ug/kg iv in anesthetized rats in presence of propranolol (3 mg/kg) (p<0.05); assay type: functional
Rattus norvegicus [30] = test: Change in heart rate administered at 6400 ug/kg iv in anesthetized rats in presence of propranolol (3 mg/kg) (p<0.05); assay type: functional
Rattus norvegicus [31] = test: Change in heart rate administered at 100 ug/kg iv in anesthetized rats in presence of spinalization under vagotomy; assay type: functional
Rattus norvegicus [32] = test: Maximum rate of rise of the left ventricular isovolumetric pressure administered at 3200 ug/kg iv in anesthetized rats in presence of […] (3 mg/kg) (p<0.05); assay type: functional, Heart left ventricle
Rattus norvegicus [33] = test: Maximum rate of rise of the left ventricular isovolumetric pressure administered at 3200 ug/kg iv in anesthetized rats in presence of spinalization under vagotomy (p<0.05); assay type: functional, Heart left ventricle
Rattus norvegicus [34] = test: Maximum rate of rise of the left ventricular isovolumetric pressure administered at 6400 ug/kg iv in anesthetized rats in presence of hexamethonium (5 mg/kg) (p<0.05); assay type: functional, Heart left ventricle
Rattus norvegicus [35] = test: Maximum rate of rise of the left ventricular isovolumetric pressure administered at 800 ug/kg iv in anesthetized rats in presence of […] (3 mg/kg) (p<0.05); assay type: functional, Heart left ventricle
Rattus norvegicus [36] = test: Maximum rate of rise of the left ventricular isovolumetric pressure (dP/dt) administered at 1600 ug/kg iv in anesthetized rats; assay type: functional, Heart left ventricle
Rattus norvegicus [37] = test: Maximum rate of rise of the left ventricular isovolumetric pressure (dP/dt) administered at 3200 ug/kg iv in anesthetized rats; assay type: functional, Heart left ventricle
Rattus norvegicus [38] = test: Maximum rate of rise of the left ventricular isovolumetric pressure (dP/dt) administered at 50 ug/kg iv in anesthetized rats; assay type: functional, Heart left ventricle
Rattus norvegicus [39] = test: Maximum rate of rise of the left ventricular isovolumetric pressure (dP/dt) administered at 6400 ug/kg iv in anesthetized rats; assay type: functional, Heart left ventricle
Rattus norvegicus [40] = test: Maximum rate of rise of the left ventricular isovolumetric pressure administered at 1600 ug/kg iv in anesthetized rats in presence of hexamethonium (5 mg/kg) (p<0.05); assay type: functional, Heart left ventricle
Rattus norvegicus [41] = test: Maximum rate of rise of the left ventricular isovolumetric pressure administered at 1600 ug/kg iv in anesthetized rats in presence of […] (3 mg/kg) (p<0.05); assay type: functional, Heart left ventricle
Rattus norvegicus [42] = test: Maximum rate of rise of the left ventricular isovolumetric pressure administered at 200 ug/kg iv in anesthetized rats in presence of spinalization under vagotomy; assay type: functional, Heart left ventricle

With COc1ccc(/C=C/C(=O)NCCCC/N=C(\N)NCC=C(C)C)cc1OC the Blood pressure (Rattus norvegicus [1]) was -34 mmHg and -40%, the Blood pressure (Rattus norvegicus [2]) was -17 mmHg and -21% and the Blood pressure (Rattus norvegicus [3]) was -18 mmHg. For the same molecule, the dP/dtmax (Rattus norvegicus [4]) was 3000 mmHg/s, the Blood pressure (Rattus norvegicus [5]) was -18 mmHg and -29% and the Blood pressure (Rattus norvegicus [6]) was -9 mmHg. The Blood pressure (Rattus norvegicus [7]) was -20 mmHg, the Blood pressure (Rattus norvegicus [8]) was 0 mmHg and the Blood pressure (Rattus norvegicus [9]) was -21 mmHg and -26%. For the same molecule, the Blood pressure (Rattus norvegicus [10]) was -8 mmHg, the Blood pressure (Rattus norvegicus [11]) was -25 mmHg and the Blood pressure (Rattus norvegicus [12]) was 0 mmHg. For the same molecule, the Blood pressure (Rattus norvegicus [13]) was 0 mmHg, the Blood pressure (Rattus norvegicus [14]) was -25 mmHg and -29% and the Blood pressure (Rattus norvegicus [15]) was -30 mmHg. The Blood pressure (Rattus norvegicus [16]) was -8 mmHg and -12 mmHg, the Blood pressure (Rattus norvegicus [17]) was -26 mmHg and the Blood pressure (Rattus norvegicus [18]) was -20 mmHg. The Blood pressure (Rattus norvegicus [19]) was -28 mmHg, the Blood pressure (Rattus norvegicus [20]) was -15 mmHg and -23% and the Blood pressure (Rattus norvegicus [21]) was -6 mmHg. The Heart rate (Rattus norvegicus [22]) was 10 beats min-1, the Frequency (Rattus norvegicus [23]) was 23 beats min-1 and 21% and the Frequency (Rattus norvegicus [24]) was 12 beats min-1 and 12%. For the same molecule, the Frequency (Rattus norvegicus [25]) was -41 beats min-1 and -39%, the Frequency (Rattus norvegicus [26]) was 16 beats min-1 and 16% and the Frequency (Rattus norvegicus [27]) was 6 beats min-1 and 6%. For the same molecule, the Frequency (Rattus norvegicus [28]) was 25 beats min-1 and 24%, the Heart rate (Rattus norvegicus [29]) was 9 beats min-1 and the Heart rate (Rattus norvegicus [30]) was 11 beats min-1. It also gave a Heart rate (Rattus norvegicus [31]) of 0 beats min-1, a dp/dt (Rattus norvegicus [32]) of 760 mmHg s-1 and a dp/dt (Rattus norvegicus [33]) of 680 mmHg s-1. The dp/dt (Rattus norvegicus [34]) was 1447 mmHg s-1, the dp/dt (Rattus norvegicus [35]) was 415 mmHg s-1 and the BP (Rattus norvegicus [36]) was 57%. For the same molecule, the dp/dt (Rattus norvegicus [36]) was 2996 mmHg s-1, the BP (Rattus norvegicus [37]) was 55% and the dp/dt (Rattus norvegicus [37]) was 2984 mmHg s-1. It also gave a BP (Rattus norvegicus [38]) of 1%, a dp/dt (Rattus norvegicus [38]) of 52 mmHg s-1 and a BP (Rattus norvegicus [39]) of 58%. The dp/dt (Rattus norvegicus [39]) was 3074 mmHg s-1, the dp/dt (Rattus norvegicus [40]) was 1008 mmHg s-1 and the dp/dt (Rattus norvegicus [41]) was 520 mmHg s-1. For the same molecule, the dp/dt (Rattus norvegicus [42]) was 0 mmHg s-1.
